Measurements from patent US5849922A, “Preparation of substituted alkenoic acids” (Eli Lilly and Company, priority 1997, dated 1998).

System: TXA2 agonist activity
Assay: Absence of Agonist Activity (pressor response in pithed rats)
Type: in vivo
Source text: 3. Absence of Agonist Activity.

How did the “pressor response following i.v. administration” value (i.v., doses up to 10 mg/kg) turn out when O=C(O)CCCC/C=C(\c1ccc(-c2nc(C(=O)NCCCCC3CCCCC3)co2)cc1)c1cccnc1 [Example 2, (E)-7-[4-[4-[[(4-Cyclohexylbutyl)amino]carbonyl]-2-oxazolyl]phenyl]-7-(3-pyridyl)hept-6-enoic Acid] was run?
Its value is “absence of a pressor response”.

O=C(O)CCC/C=C\CC1C2CCC(C2)C1NS(=O)(=O)c1ccccc1 (centres unmarked) [Example S-145] was tested. Which “increase in the mean arterial pressure” value (0.1 mg/kg i.v., at one minute after dosing) did it give?
Its value is “transient, but significant, increase in the mean arterial pressure”.
